Measured values: ChEMBL document CHEMBL1130474, “Conformationally restricted arginine analogues as inhibitors of human nitric oxide synthase” (Bioorg Med Chem Lett, 1997)
pKi: −log10 of the molar value.

Columns and labels:
[1] = biological target: Nitric oxide synthase, inducible (Homo sapiens, UniProt P35228); test: Inhibitory constant for the inhibition of human Inducible nitric oxide synthase
[2] = biological target: T1, Nitric oxide synthase 3 (Homo sapiens, UniProt P29474); test: Inhibitory constant for the inhibition of human Endothelial nitric oxide synthase
T1 sequence (P29474 whole entry): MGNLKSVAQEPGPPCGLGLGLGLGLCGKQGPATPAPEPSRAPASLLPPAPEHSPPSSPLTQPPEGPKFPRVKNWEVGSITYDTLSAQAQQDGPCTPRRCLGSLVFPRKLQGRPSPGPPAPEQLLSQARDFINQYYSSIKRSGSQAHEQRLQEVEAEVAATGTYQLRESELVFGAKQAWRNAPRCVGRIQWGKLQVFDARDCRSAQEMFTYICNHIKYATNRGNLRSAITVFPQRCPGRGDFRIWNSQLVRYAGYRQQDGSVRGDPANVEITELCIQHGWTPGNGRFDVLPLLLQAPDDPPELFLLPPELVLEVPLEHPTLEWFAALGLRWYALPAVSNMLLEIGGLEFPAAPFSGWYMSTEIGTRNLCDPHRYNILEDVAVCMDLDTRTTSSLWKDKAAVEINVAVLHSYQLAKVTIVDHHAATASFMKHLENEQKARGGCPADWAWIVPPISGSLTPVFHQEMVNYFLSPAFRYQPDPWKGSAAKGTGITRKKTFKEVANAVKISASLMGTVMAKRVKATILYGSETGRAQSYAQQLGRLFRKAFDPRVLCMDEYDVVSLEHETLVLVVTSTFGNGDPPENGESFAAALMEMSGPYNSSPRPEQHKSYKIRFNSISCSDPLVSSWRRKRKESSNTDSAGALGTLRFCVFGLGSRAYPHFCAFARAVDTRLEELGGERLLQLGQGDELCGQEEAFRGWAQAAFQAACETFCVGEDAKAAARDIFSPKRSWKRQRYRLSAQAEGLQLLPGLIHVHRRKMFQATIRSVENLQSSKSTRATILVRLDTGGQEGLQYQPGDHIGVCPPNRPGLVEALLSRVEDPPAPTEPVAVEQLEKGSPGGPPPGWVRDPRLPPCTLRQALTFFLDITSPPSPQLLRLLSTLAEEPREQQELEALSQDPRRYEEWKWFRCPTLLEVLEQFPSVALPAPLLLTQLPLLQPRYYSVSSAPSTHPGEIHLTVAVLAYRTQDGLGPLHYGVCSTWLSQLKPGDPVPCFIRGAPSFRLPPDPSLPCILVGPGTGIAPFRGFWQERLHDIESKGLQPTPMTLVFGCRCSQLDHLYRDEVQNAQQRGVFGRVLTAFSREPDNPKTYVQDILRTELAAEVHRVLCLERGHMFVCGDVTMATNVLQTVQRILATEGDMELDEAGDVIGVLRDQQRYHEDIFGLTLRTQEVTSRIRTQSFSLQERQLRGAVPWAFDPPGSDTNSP

[3] = biological target: Nitric oxide synthase 1 (Homo sapiens, UniProt P29475); test: Inhibitory constant for the inhibition of human Neuronal nitric oxide synthase
Nitric oxide synthase 1, sequence (P29475 whole entry): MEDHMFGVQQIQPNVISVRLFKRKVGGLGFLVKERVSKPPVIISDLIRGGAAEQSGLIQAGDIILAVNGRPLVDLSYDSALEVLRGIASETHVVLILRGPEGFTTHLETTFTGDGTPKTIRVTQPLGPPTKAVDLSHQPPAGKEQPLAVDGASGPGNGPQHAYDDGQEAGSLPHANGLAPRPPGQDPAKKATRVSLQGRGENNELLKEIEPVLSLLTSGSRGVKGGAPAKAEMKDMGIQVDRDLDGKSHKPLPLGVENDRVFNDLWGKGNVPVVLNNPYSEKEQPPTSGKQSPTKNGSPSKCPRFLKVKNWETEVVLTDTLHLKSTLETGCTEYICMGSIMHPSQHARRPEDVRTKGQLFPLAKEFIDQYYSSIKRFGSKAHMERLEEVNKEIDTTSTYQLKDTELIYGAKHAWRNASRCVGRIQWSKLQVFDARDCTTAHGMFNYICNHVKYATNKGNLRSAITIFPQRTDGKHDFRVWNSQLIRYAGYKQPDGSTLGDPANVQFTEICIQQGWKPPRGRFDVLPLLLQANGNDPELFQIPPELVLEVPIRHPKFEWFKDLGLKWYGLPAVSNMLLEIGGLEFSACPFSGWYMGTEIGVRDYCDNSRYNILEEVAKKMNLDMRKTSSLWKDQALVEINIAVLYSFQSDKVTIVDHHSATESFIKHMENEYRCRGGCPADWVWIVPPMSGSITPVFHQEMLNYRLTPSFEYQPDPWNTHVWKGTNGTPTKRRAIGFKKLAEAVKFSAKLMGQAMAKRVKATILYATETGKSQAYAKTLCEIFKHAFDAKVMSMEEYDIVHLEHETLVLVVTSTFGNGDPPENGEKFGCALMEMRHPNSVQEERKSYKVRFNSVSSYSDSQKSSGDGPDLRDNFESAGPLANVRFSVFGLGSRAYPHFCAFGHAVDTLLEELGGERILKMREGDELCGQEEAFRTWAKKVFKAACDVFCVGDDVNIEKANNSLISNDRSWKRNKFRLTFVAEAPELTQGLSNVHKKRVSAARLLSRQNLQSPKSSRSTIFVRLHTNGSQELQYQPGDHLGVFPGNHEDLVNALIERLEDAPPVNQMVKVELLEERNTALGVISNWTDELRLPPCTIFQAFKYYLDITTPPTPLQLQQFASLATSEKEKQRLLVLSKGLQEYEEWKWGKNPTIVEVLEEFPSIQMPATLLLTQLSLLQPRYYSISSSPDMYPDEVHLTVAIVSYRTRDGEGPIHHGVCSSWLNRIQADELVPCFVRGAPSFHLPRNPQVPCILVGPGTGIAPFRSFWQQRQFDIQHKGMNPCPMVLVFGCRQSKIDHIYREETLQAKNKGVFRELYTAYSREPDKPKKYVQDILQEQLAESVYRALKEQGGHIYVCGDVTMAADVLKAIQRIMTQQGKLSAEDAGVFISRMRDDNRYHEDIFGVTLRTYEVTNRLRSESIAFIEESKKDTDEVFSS

Nitric oxide synthase, inducible, sequence (P35228 whole entry): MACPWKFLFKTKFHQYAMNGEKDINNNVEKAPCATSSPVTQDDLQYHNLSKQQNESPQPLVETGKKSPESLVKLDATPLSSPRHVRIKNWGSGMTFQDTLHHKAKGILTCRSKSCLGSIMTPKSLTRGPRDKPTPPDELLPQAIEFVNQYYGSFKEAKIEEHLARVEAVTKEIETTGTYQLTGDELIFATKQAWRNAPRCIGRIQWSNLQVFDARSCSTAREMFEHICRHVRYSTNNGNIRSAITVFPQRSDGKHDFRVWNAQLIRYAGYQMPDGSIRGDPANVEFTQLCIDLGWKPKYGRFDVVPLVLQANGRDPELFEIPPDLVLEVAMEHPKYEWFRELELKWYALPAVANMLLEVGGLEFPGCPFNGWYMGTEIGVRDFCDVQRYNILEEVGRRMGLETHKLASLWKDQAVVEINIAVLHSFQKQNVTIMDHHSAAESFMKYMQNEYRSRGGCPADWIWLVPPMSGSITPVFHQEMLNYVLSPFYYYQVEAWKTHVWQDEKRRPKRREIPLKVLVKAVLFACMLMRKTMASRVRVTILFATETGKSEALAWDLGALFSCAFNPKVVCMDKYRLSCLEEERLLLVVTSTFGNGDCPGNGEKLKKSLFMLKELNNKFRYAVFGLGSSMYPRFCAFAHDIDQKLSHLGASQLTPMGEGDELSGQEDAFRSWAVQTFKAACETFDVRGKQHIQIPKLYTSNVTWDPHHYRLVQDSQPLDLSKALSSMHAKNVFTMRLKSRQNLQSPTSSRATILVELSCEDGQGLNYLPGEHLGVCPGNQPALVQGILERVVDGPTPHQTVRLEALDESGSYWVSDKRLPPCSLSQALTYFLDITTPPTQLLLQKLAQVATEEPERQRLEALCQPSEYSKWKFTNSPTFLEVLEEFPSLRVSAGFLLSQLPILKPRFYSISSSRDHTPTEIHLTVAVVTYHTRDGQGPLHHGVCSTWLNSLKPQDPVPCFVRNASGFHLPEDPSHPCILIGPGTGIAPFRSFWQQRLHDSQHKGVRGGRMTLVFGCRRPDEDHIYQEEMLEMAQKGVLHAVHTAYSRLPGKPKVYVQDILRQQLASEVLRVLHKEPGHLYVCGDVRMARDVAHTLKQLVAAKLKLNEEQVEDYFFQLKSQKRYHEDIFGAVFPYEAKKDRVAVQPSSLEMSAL

pKi [1]	pKi [2]	pKi [3]	Compound
4.09	4.41	4.54	CC(=N)Nc1cccc(CC(N)C(=O)O)c1 (stereo not given)
6.22	6.57	6.39	C/N=C(/N)Nc1ccccc1CC(N)C(=O)O (stereo not given)
5.72	5.80	5.89	CC(=N)Nc1ccccc1CC(N)C(=O)O (stereo not given)
6.47	6.09	–	CC(=N)NCCC[C@H](N)C(=O)O [L-NIO]
4.02	5.06	5.08	CNC(N)=Nc1cccc(CC(N)C(=O)O)c1 (stereo not given)
5.59	6.60	6.43	NC(N)=Nc1ccccc1CC(N)C(=O)O (stereo not given)
4.00	4.34	4.36	N=C(N)Nc1cccc(CC(N)C(=O)O)c1 (stereo not given)
